# Measured values as given in patent US20230085307A1, “PYRIDAZINONE COMPOUND AND HERBICIDE” (NISSAN CHEMICAL CORPORATION, priority 2019, published 2023).
# Tests used:
# [1] = test system: wild oat; experiment: Test Example 4: herbicidal effect by soil treatment (Table 19, symbol I); assay type: in vivo, wild oat (Avena fatua); conditions: AAH 320 g/ha
# Method in brief: (§1)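 Pre-emergence style soil spray: seeds under ~1.5 cm sterilized diluvial soil received a uniform coat of emulsion diluted to the predetermined herbicide amount. Greenhouse 25–30° C; readout at week three on previously defined criteria.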
# [2] = test system: redroot pigweed; experiment: Test Example 5: herbicidal effect by foliage application, plastic box (Table 20, symbol N); assay type: in vivo, redroot pigweed (Amaranthus retroflexus); conditions: foliage application, AAH 320 g/ha, three weeks after application
# Method in brief: (§2)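 Plants were sown into sterilized diluvial soil under about 1.5 cm cover and kept in a greenhouse at 25° C. to 30° C. Fourteen days on, foliage received an even spray of the diluted emulsion. Herbicidal or crop effect was judged three weeks afterwards.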
# [3] = test system: Chinese sprangletop; experiment: Test Example 3: herbicidal effect by foliage application, Wagner pot (Table 18, symbol D); assay type: in vivo, chinese sprangletop (Leptochloa chinensis); conditions: 320 g/ha
# Method in brief: (§3)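 Plants were sown in alluvial soil held under 0.1–0.5 cm standing water and grown 14 days in a greenhouse at 25–30 °C. An emulsifiable formulation, water-diluted to the set dose, was then sprayed onto the foliage, and effects were scored three weeks later using previously defined criteria.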
# [4] = test system: lambsquarters; experiment: Test Example 4: herbicidal effect by soil treatment (Table 19, symbol O); assay type: in vivo, lambsquarters (Chenopodium album); conditions: AAH 320 g/ha
# Method in brief: as §1
# [5] = test system: wild oat; experiment: Test Example 5: herbicidal effect by foliage application, plastic box (Table 20, symbol I); assay type: in vivo, wild oat (Avena fatua); conditions: foliage application, AAH 320 g/ha, three weeks after application
# Method in brief: as §2
# [6] = test system: southern crabgrass; experiment: Test Example 4: herbicidal effect by soil treatment (Table 19, symbol F); assay type: in vivo, southern crabgrass (Digitaria ciliaris); conditions: AAH 320 g/ha
# Method in brief: as §1
# [7] = test system: lambsquarters; experiment: Test Example 5: herbicidal effect by foliage application, plastic box (Table 20, symbol O); assay type: in vivo, lambsquarters (Chenopodium album); conditions: foliage application, AAH 320 g/ha, three weeks after application
# Method in brief: as §2
# [8] = test system: chickweed; experiment: Test Example 4: herbicidal effect by soil treatment (Table 19, symbol P); assay type: in vivo, common chickweed (Stellaria media); conditions: AAH 320 g/ha
# Method in brief: as §1
# [9] = test system: rice flat sedge; experiment: Test Example 3: herbicidal effect by foliage application, Wagner pot (Table 18, symbol E); assay type: in vivo, rice flat sedge (Cyperus iria); conditions: 320 g/ha
# Method in brief: as §3
# [10] = test system: chickweed; experiment: Test Example 5: herbicidal effect by foliage application, plastic box (Table 20, symbol P); assay type: in vivo, common chickweed (Stellaria media); conditions: foliage application, AAH 320 g/ha, three weeks after application
# Method in brief: as §2
# [11] = test system: windgrass; experiment: Test Example 5: herbicidal effect by foliage application, plastic box (Table 20, symbol L); assay type: in vivo, windgrass (Apera spica-venti); conditions: foliage application, AAH 320 g/ha, three weeks after application
# Method in brief: as §2
# [12] = test system: barnyard grass; experiment: Test Example 5: herbicidal effect by foliage application, plastic box (Table 20, symbol H); assay type: in vivo, barnyard grass (Echinochloa crus-galli); conditions: foliage application, AAH 320 g/ha, three weeks after application
# Method in brief: as §2
# [13] = test system: velvetleaf; experiment: Test Example 4: herbicidal effect by soil treatment (Table 19, symbol M); assay type: in vivo, velvetleaf (Abutilon theophrasti); conditions: AAH 320 g/ha
# Method in brief: as §1
# [14] = test system: green foxtail; experiment: Test Example 4: herbicidal effect by soil treatment (Table 19, symbol G); assay type: in vivo, green foxtail (Setaria viridis); conditions: AAH 320 g/ha
# Method in brief: as §1
# [15] = test system: persian speedwell; experiment: Test Example 5: herbicidal effect by foliage application, plastic box (Table 20, symbol R); assay type: in vivo, Persian speedwell (Veronica persica); conditions: foliage application, AAH 320 g/ha, three weeks after application
# Method in brief: as §2
# [16] = test system: Italian ryegrass; experiment: Test Example 5: herbicidal effect by foliage application, plastic box (Table 20, symbol K); assay type: in vivo, Italian ryegrass (Lolium multiflorum); conditions: foliage application, AAH 320 g/ha, three weeks after application
# Method in brief: as §2
# [17] = test system: Italian ryegrass; experiment: Test Example 4: herbicidal effect by soil treatment (Table 19, symbol K); assay type: in vivo, Italian ryegrass (Lolium multiflorum); conditions: AAH 320 g/ha
# Method in brief: as §1
# [18] = test system: blackgrass; experiment: Test Example 5: herbicidal effect by foliage application, plastic box (Table 20, symbol J); assay type: in vivo, blackgrass (Alopecurus myosuroides); conditions: foliage application, AAH 320 g/ha, three weeks after application
# Method in brief: as §2
# [19] = test system: persian speedwell; experiment: Test Example 4: herbicidal effect by soil treatment (Table 19, symbol R); assay type: in vivo, Persian speedwell (Veronica persica); conditions: AAH 320 g/ha
# Source text: [Test Example 4] Herbicidal Effect Test by Soil Treatment
# Sterilized diluvial soil was placed in a plastic box having a length of 21 cm, a width of 13 cm, and a depth of 7 cm. The seeds of each of southern crabgrass, green foxtail, barnyard grass, wild oat, blackgrass, Italian ryegrass, windgrass, velvetleaf, redroot pigweed, lambsquarters, chickweed, false cleavers, persian speedwell, corn, soybean, rice, wheat, beet, and rapeseed were sowed in a spot-like manner and covered with the soil having a thickness of about 1.5 cm. Subsequently, the emulsion agent of the compound of the present invention prepared according to Formulation Example 2 was diluted with water so as to achieve a predetermined herbicide amount, and the diluted emulsion agent was uniformly applied to the surface of the soil with a small-sized spray. The plastic box was placed in a greenhouse at 25° C. to 30° C. for growth of the plants. Three weeks after the herbicide application, the effect of the herbicide on each plant was evaluated according to the criteria of Test Example 1.
# [20] = test system: barnyard grass; experiment: Test Example 4: herbicidal effect by soil treatment (Table 19, symbol H); assay type: in vivo, barnyard grass (Echinochloa crus-galli); conditions: AAH 320 g/ha
# Method in brief: as §1
# [21] = test system: velvetleaf; experiment: Test Example 5: herbicidal effect by foliage application, plastic box (Table 20, symbol M); assay type: in vivo, velvetleaf (Abutilon theophrasti); conditions: foliage application, AAH 320 g/ha, three weeks after application
# Method in brief: as §2
# [22] = test system: green foxtail; experiment: Test Example 5: herbicidal effect by foliage application, plastic box (Table 20, symbol G); assay type: in vivo, green foxtail (Setaria viridis); conditions: foliage application, AAH 320 g/ha, three weeks after application
# Method in brief: as §2
# [23] = test system: redroot pigweed; experiment: Test Example 4: herbicidal effect by soil treatment (Table 19, symbol N); assay type: in vivo, redroot pigweed (Amaranthus retroflexus); conditions: AAH 320 g/ha
# Method in brief: as §1
# [24] = test system: barnyard grass; experiment: Test Example 3: herbicidal effect by foliage application, Wagner pot (Table 18, symbol H); assay type: in vivo, barnyard grass (Echinochloa crus-galli); conditions: 320 g/ha
# Method in brief: as §3
# [25] = test system: southern crabgrass; experiment: Test Example 5: herbicidal effect by foliage application, plastic box (Table 20, symbol F); assay type: in vivo, southern crabgrass (Digitaria ciliaris); conditions: foliage application, AAH 320 g/ha, three weeks after application
# Method in brief: as §2
structure (smiles),measurement,setting,value
CCCC(=O)Oc1c(C)nn(C)c(=O)c1-c1c(-c2ccc(C(F)(F)F)cc2OC)sc2ccccc12 [1-156],"I: wild oat, herbicidal effect rating",[1],0 (Herbicidal rate of 5% or less (almost no effect))
same,"N: redroot pigweed, herbicidal effect",[2],3 (Herbicidal rate of 40% or more and less than 70%)
same,"herbicidal effect on D (Chinese sprangletop), rating 0-5",[3],3 (Herbicidal rate of 40% or more and less than 70%)
same,"O: lambsquarters, herbicidal effect rating",[4],3 (Herbicidal rate of 40% or more and less than 70%)
same,"I: wild oat, herbicidal effect",[5],3 (Herbicidal rate of 40% or more and less than 70%)
same,"F: southern crabgrass, herbicidal effect rating",[6],0 (Herbicidal rate of 5% or less (almost no effect))
same,"O: lambsquarters, herbicidal effect",[7],2 (Herbicidal rate of 20% or more and less than 40%)
same,"P: chickweed, herbicidal effect rating",[8],0 (Herbicidal rate of 5% or less (almost no effect))
same,"herbicidal effect on E (rice flat sedge), rating 0-5",[9],3 (Herbicidal rate of 40% or more and less than 70%)
same,"P: chickweed, herbicidal effect",[10],5 (Herbicidal rate of 90% or more (almost completely withered))
same,"L: windgrass, herbicidal effect",[11],5 (Herbicidal rate of 90% or more (almost completely withered))
same,"H: barnyard grass, herbicidal effect",[12],1 (Herbicidal rate of 5% or more and less than 20%)
same,"M: velvetleaf, herbicidal effect rating",[13],0 (Herbicidal rate of 5% or less (almost no effect))
same,"G: green foxtail, herbicidal effect rating",[14],0 (Herbicidal rate of 5% or less (almost no effect))
same,"R: persian speedwell, herbicidal effect",[15],3 (Herbicidal rate of 40% or more and less than 70%)
same,"K: Italian ryegrass, herbicidal effect",[16],4 (Herbicidal rate of 70% or more and less than 90%)
same,"K: Italian ryegrass, herbicidal effect rating",[17],3 (Herbicidal rate of 40% or more and less than 70%)
same,"J: blackgrass, herbicidal effect",[18],0 (Herbicidal rate of 5% or less (almost no effect))
same,"R: persian speedwell, herbicidal effect rating",[19],0 (Herbicidal rate of 5% or less (almost no effect))
same,"H: barnyard grass, herbicidal effect rating",[20],0 (Herbicidal rate of 5% or less (almost no effect))
same,"M: velvetleaf, herbicidal effect",[21],0 (Herbicidal rate of 5% or less (almost no effect))
same,"G: green foxtail, herbicidal effect",[22],3 (Herbicidal rate of 40% or more and less than 70%)
same,"N: redroot pigweed, herbicidal effect rating",[23],0 (Herbicidal rate of 5% or less (almost no effect))
same,"herbicidal effect on H (barnyard grass), rating 0-5",[24],3 (Herbicidal rate of 40% or more and less than 70%)
same,"F: southern crabgrass, herbicidal effect",[25],0 (Herbicidal rate of 5% or less (almost no effect))
